This is an account of results in EPA's ToxValDB 9.5 (doi:10.2903/j.efsa.2013.3220).

Values after ≈ are worked out from the molar mass of the structure shown.

One data set concerns Aphidius rhopalosiphi. In words: LR50; higher = less toxic. The note with it: acute; duration: 48 hours; mortality.
A further data set deals with Typhlodromus pyri. Nature of the data set: LR50; higher = less toxic. The settings on record: chronic/long-term; duration: 7 days; mortality.
The test system of another data set is Daphnia magna. The note with it: chronic/long-term, duration: 21 days.
The subject of a further data set is Colinus virginianus. The note with it: for LD50: acute, oral, mortality.
A further data set relates to Zea sp. The settings on record: acute, duration: 14 days.
The subject of another data set is Rattus norvegicus. The settings on record: for LD50: acute, oral, mortality.
The next data set deals with Pimephales promelas. The note with it: chronic/long-term; duration: 32 days; body weight.
The next data set concerns Lepomis macrochirus. The settings on record: acute; duration: 96 hours; mortality.
In the next data set the test system is Canidae. The note with it: chronic; duration: 1 years; oral; M/F; Dog Other; histopathology: nonneoplastic.
Another data set has as its system Bibionidae. The note with it: chronic/long-term, duration: 28 days.
A further data set has as its system Apis mellifera. The settings on record: acute, mortality.

Take `CCO[C@@H]1[C@@H](OC)[C@H](C)O[C@@H](OC2C[C@H]3CC[C@H]4C5CC(=O)O[C@@H](CC)CCC[C@H](O[C@H]6CC[C@H](N(C)C)[C@@H](C)O6)[C@@H](C)C(=O)C5=C[C@H]4[C@@H]3C2)[C@@H]1OC` (some centres not stated) [Spinetoram]: the results for the LR50 in the data set on Aphidius rhopalosiphi and in the data set with Typhlodromus pyri were 0.0885 g/ha and 0.132 g/ha, respectively. Also, the NOEC was 0.0624 µg/L in the data set with Daphnia magna (mobility); 18.6 mg/kg in the data set with Tagia sp. (chronic/long-term, duration: 56 days, reproduction); 0.182 mg/L in the data set with Pimephales promelas; 97.2 µg/kg in the data set with Bibionidae (M/F, development); 0.75 µg/L in the data set with Bibionidae (development). Further, the LC50 in the data set with Tagia sp. (acute, duration: 14 days, mortality) was more than 1000 mg/kg; in the data set on Lepomis macrochirus it was 2.69 µg/mL (≈ 3.6 µM). The LD50 with Colinus virginianus (diet) is more than 2040 mg/kg-day; with Colinus virginianus it was more than 2250 mg/kg-day; in the data set with Rattus norvegicus it was more than 5000 mg/kg-day; in the data set on Anas platyrhynchos (acute, oral, unspecified, mortality) it was more than 2250 mg/kg-day; in the data set with Apis mellifera (duration: 48 hours, dermal), 0.024 µg/piece; with Apis mellifera (duration: 72 hours, oral, unspecified), 0.11 µg/piece. Moreover, the NOEL is 95 mg/kg-day in the data set with Colinus virginianus (reproduction developmental) and 149 mg/kg-day in the data set with Anas platyrhynchos (reproductive). The LEC in the data set with Zea sp. (other) and in the data set on Zea sp. (seedling emergence) was not above 150 g/ha throughout. Moreover, the NOAEL with Rattus norvegicus (reproduction developmental, reproduction) worked out at 10 mg/kg-day; in the data set on Canidae it was 2.5 mg/kg-day.

With `CCO[C@@H]1[C@@H](OC)[C@H](C)O[C@@H](O[C@@H]2C[C@H]3CC[C@@H]4[C@@H](C=C5C(=O)[C@H](C)[C@@H](O[C@H]6CC[C@H](NC)[C@@H](C)O6)CCC[C@H](CC)OC(=O)C[C@H]54)[C@@H]3C2)[C@@H]1OC` [N-demethyl-175-J], the values for the NOEC with Daphnia magna and in the data set on Bibionidae were 0.03 µg/L and 0.617 µg/L, respectively. The LD50 with Rattus norvegicus was found to be 3130 mg/kg-day. Besides, in the data set with Lepomis macrochirus, the LC50 turned out to be 2.98 µg/mL (≈ 4.06 µM).

In turn, `CCO[C@@H]1[C@@H](OC)[C@H](C)O[C@@H](O[C@@H]2C[C@H]3CC[C@@H]4[C@@H](C=C5C(=O)[C@H](C)[C@@H](O[C@H]6CC[C@H](N(C)C=O)[C@@H](C)O6)CCC[C@H](CC)OC(=O)C[C@H]54)[C@@H]3C2)[C@@H]1OC` [N-demethyl-175-L] yielded an NOEC in the data set on Daphnia magna of 0.027 µg/L. In the data set with Lepomis macrochirus, the LC50 came out at 1.55 µg/mL (≈ 2.03 µM).
